# Assay results taken from PubChem BioAssay (NCI).
#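 Five compound concentrations were applied to cells in 96-well plates for 48 hours; endpoints were derived by simple linear interpolation of the resulting dose-response curve. GI50: concentration for 50% inhibition of growth. TGI marks complete inhibition of growth.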
# Legend:
# Test in all cases: inhibition of tumour cell growth, NCI panel, 48 h
# MCF7 breast = tested on: MCF7 breast
# RXF 393 renal = tested on: RXF 393 renal
# RPMI-8226 leukemia = tested on: RPMI-8226 leukemia
# NCI/ADR-RES ovarian = tested on: NCI/ADR-RES ovarian
# M14 melanoma = tested on: M14 melanoma
# SNB-75 CNS = tested on: SNB-75 CNS
# NCI-H23 lung = tested on: NCI-H23 lung
# PC-3 prostate = tested on: PC-3 prostate
# OVCAR-4 ovarian = tested on: OVCAR-4 ovarian
# U251 CNS = tested on: U251 CNS
compound,measurement,setting,value
COc1cc(OC)c2c(O)c(S(=O)(=O)c3ccc(C)cc3)c(=O)oc2c1,TGI,MCF7 breast,> 100 µM
same,TGI,RXF 393 renal,> 100 µM
same,TGI,RPMI-8226 leukemia,> 100 µM
same,TGI,NCI/ADR-RES ovarian,> 100 µM
same,TGI,M14 melanoma,> 100 µM
same,TGI,SNB-75 CNS,> 100 µM
same,TGI,NCI-H23 lung,> 100 µM
same,TGI,PC-3 prostate,> 100 µM
same,TGI,OVCAR-4 ovarian,> 100 µM
same,TGI,U251 CNS,> 100 µM
[N-]=[N+]=NC[C@H]1OCO[C@H](CN=[N+]=[N-])[C@H]2OCCOCCOc3ccccc3OCCOCCO[C@@H]21,TGI,MCF7 breast,> 100 µM
same,TGI,RXF 393 renal,> 100 µM
same,TGI,RPMI-8226 leukemia,> 100 µM
same,TGI,NCI/ADR-RES ovarian,> 100 µM
same,TGI,M14 melanoma,> 100 µM
same,TGI,SNB-75 CNS,> 100 µM
same,TGI,NCI-H23 lung,> 100 µM
same,TGI,PC-3 prostate,> 100 µM
same,TGI,OVCAR-4 ovarian,> 100 µM
same,TGI,U251 CNS,> 100 µM
COC(=O)/C(=C\c1ccco1)P(=O)(OC)OC,TGI,MCF7 breast,> 100 µM
same,TGI,RXF 393 renal,> 100 µM
same,TGI,RPMI-8226 leukemia,> 100 µM
same,TGI,NCI/ADR-RES ovarian,> 100 µM
same,TGI,M14 melanoma,> 100 µM
same,TGI,SNB-75 CNS,> 100 µM
same,TGI,NCI-H23 lung,> 100 µM
same,TGI,PC-3 prostate,> 100 µM
same,TGI,OVCAR-4 ovarian,33.7 µM
same,TGI,U251 CNS,> 100 µM
Oc1nc(N/N=C/c2ccccc2)[nH]c1/C=C1\C=Nc2ccccc21,TGI,MCF7 breast,> 100 µM
same,TGI,RXF 393 renal,> 100 µM
same,TGI,RPMI-8226 leukemia,> 100 µM
same,TGI,NCI/ADR-RES ovarian,> 100 µM
same,TGI,M14 melanoma,> 100 µM
same,TGI,SNB-75 CNS,> 100 µM
same,TGI,NCI-H23 lung,> 100 µM
same,TGI,PC-3 prostate,> 100 µM
same,TGI,OVCAR-4 ovarian,> 100 µM
same,TGI,U251 CNS,51.3 µM
Cc1nn(C)c2nc3ccc(Cl)cc3c(-c3ccccc3)c12,TGI,MCF7 breast,> 100 µM
same,TGI,RXF 393 renal,> 100 µM
same,TGI,RPMI-8226 leukemia,> 100 µM
same,TGI,NCI/ADR-RES ovarian,> 100 µM
same,TGI,M14 melanoma,> 100 µM
same,TGI,SNB-75 CNS,> 100 µM
same,TGI,NCI-H23 lung,> 100 µM
same,TGI,PC-3 prostate,> 100 µM
same,TGI,OVCAR-4 ovarian,> 100 µM
same,TGI,U251 CNS,> 100 µM
CC(NNC(=O)c1ccncc1)c1ccc(Cl)c(Cl)c1 (stereo not given),TGI,MCF7 breast,> 100 µM
same,TGI,RXF 393 renal,> 100 µM
same,TGI,RPMI-8226 leukemia,> 100 µM
same,TGI,NCI/ADR-RES ovarian,> 100 µM
same,TGI,M14 melanoma,> 100 µM
same,TGI,SNB-75 CNS,> 100 µM
same,TGI,NCI-H23 lung,> 100 µM
same,TGI,PC-3 prostate,> 100 µM
same,TGI,OVCAR-4 ovarian,> 100 µM
same,TGI,U251 CNS,> 100 µM
COC1=CC(=O)c2c(O)c3c(c(O)c2C1=O)C[C@](C)(O)C[C@@H]3O,TGI,MCF7 breast,16.3 µM
same,TGI,RXF 393 renal,17.3 µM
same,TGI,RPMI-8226 leukemia,40.2 µM
same,TGI,NCI/ADR-RES ovarian,29 µM
same,TGI,M14 melanoma,8.59 µM
same,TGI,SNB-75 CNS,28 µM
same,TGI,NCI-H23 lung,6.7 µM
same,TGI,PC-3 prostate,> 42.5 µM
same,TGI,OVCAR-4 ovarian,13.1 µM
same,TGI,U251 CNS,14.6 µM
COc1cc(OC)cc(-c2n/c(=C\c3c(O)[nH]c4ccc(Cl)cc34)cc3c2=Nc2ccccc2-3)c1,GI50,MCF7 breast,1.82 µM
same,TGI,MCF7 breast,4.66 µM
same,GI50,RXF 393 renal,6.05 µM
same,TGI,RXF 393 renal,21.4 µM
same,GI50,RPMI-8226 leukemia,16.3 µM
same,TGI,RPMI-8226 leukemia,> 100 µM
same,GI50,NCI/ADR-RES ovarian,3.03 µM
same,TGI,NCI/ADR-RES ovarian,10.8 µM
same,GI50,M14 melanoma,4.01 µM
same,TGI,M14 melanoma,13.7 µM
same,GI50,SNB-75 CNS,16.3 µM
same,TGI,SNB-75 CNS,39.6 µM
same,GI50,NCI-H23 lung,2.34 µM
same,TGI,NCI-H23 lung,6.06 µM
same,GI50,PC-3 prostate,5.55 µM
same,TGI,PC-3 prostate,28.7 µM
same,GI50,OVCAR-4 ovarian,1.76 µM
same,TGI,OVCAR-4 ovarian,3.77 µM
same,GI50,U251 CNS,1.75 µM
same,TGI,U251 CNS,3.22 µM
Cc1c(C#N)c2nnn(-c3ccccc3)c(=O)n2c1-c1ccccc1,TGI,MCF7 breast,> 66.6 µM
same,TGI,RXF 393 renal,> 24.2 µM
same,TGI,RPMI-8226 leukemia,14.8 µM
same,TGI,NCI/ADR-RES ovarian,14.6 µM
same,TGI,M14 melanoma,> 35.6 µM
same,TGI,SNB-75 CNS,18.2 µM
same,TGI,NCI-H23 lung,> 77.6 µM
same,TGI,PC-3 prostate,> 100 µM
same,TGI,OVCAR-4 ovarian,> 100 µM
same,TGI,U251 CNS,> 100 µM
Cc1nn(C(=O)c2ccncc2)c2c1C(c1cccc([N+](=O)[O-])c1)SC(N)=N2 (stereo not given),TGI,MCF7 breast,> 10 µM
same,TGI,RXF 393 renal,> 10 µM
same,TGI,RPMI-8226 leukemia,> 10 µM
same,TGI,NCI/ADR-RES ovarian,> 10 µM
same,TGI,M14 melanoma,> 10 µM
same,TGI,SNB-75 CNS,> 10 µM
same,TGI,NCI-H23 lung,> 10 µM
same,TGI,PC-3 prostate,> 10 µM
same,TGI,OVCAR-4 ovarian,> 10 µM
same,TGI,U251 CNS,> 10 µM
